Data from patent US10519134B2, “Pyrazole compounds and methods of making and using same” (Lundbeck La Jolla Research Center, Inc., priority 2015, dated 2019).

How the values were obtained:
MAGL [1] = biological target: T1, MAGL (Homo sapiens, UniProt Q99685); experiment: In vitro competitive activity-based protein profiling (human), MAGL gel band; format: biochemical
T1 construct: Proteomes (human prefrontal cortex or cell membrane fractions); from tissue; host or cells: human prefrontal cortex (or cell membrane fractions)
T1 sequence (Q99685 1-303): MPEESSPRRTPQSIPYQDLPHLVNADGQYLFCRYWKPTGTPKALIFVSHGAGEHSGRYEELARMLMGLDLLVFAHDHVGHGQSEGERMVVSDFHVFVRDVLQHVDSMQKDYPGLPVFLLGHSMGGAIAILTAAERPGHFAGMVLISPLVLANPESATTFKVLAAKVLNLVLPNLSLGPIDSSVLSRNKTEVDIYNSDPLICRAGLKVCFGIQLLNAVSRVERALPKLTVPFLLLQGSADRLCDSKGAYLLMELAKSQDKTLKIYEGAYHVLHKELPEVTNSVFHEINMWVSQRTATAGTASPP
In short: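 Human prefrontal cortex or cell membrane proteomes (1.0-2.0 mg/mL protein) preincubated with inhibitors 30 min at 37° C, then labelled with FP-Rh or JW912 probe 30 min at room temperature. Residual MAGL activity read as fluorescent gel-band intensity after SDS-PAGE.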

FAAH = biological target: T2, FAAH (Mus musculus, UniProt O08914); experiment: In vitro competitive activity-based protein profiling (mouse), FAAH gel band; format: biochemical; details: for IC50: mouse; for inhibition at 1 µM: read-out: FAAH % inh. 1 μM
T2 construct: Proteomes (mouse brain membrane fraction or cell lysates); from tissue; host or cells: mouse brain membrane fraction (or cell lysates)
T2 sequence (O08914 1-579): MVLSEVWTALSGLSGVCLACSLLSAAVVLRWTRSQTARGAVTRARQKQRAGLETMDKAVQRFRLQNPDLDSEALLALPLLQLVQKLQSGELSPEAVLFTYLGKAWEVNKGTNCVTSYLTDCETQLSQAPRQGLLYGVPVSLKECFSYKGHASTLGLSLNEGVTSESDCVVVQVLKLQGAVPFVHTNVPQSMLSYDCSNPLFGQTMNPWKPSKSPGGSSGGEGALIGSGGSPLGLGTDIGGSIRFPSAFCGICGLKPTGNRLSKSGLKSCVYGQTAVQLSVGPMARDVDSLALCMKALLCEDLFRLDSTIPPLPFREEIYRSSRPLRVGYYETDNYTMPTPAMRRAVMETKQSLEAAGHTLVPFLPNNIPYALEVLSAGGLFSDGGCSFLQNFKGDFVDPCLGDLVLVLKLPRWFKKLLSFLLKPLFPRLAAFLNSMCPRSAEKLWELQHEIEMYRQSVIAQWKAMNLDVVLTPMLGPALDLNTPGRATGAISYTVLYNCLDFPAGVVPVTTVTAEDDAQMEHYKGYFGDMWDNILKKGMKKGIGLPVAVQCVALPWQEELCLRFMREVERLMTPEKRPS
In short: (§1)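 Mouse brain membrane proteome or cell lysate (1.0 mg/mL total protein) was preincubated with varying inhibitor concentrations for 30 min at 37 °C, then labelled for 30 min at 37 °C with FP-Rh or HT-01 (50 μM stock in DMSO). Activity was read as fluorescent band intensity after SDS-PAGE.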

MAGL [2] = biological target: T3, MAGL (Mus musculus, UniProt O35678); experiment: In vitro competitive activity-based protein profiling (mouse), MAGL gel band; format: biochemical; details: for IC50: mouse; for inhibition at 1 µM: read-out: MAGL % inh. 1 μM
T3 construct: Proteomes (mouse brain membrane fraction or cell lysates); from tissue; host or cells: mouse brain membrane fraction (or cell lysates)
T3 sequence (O35678 1-303): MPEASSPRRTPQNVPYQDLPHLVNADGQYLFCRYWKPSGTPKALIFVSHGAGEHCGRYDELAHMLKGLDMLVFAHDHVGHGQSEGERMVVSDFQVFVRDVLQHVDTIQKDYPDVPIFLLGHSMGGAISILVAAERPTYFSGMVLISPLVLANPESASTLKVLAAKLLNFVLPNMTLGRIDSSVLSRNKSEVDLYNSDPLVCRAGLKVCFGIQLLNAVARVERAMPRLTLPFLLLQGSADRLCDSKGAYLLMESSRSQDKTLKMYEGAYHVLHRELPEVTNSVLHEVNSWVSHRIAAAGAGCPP
In short: as §1

MAGL [3] = biological target: T3, MAGL; experiment: Mouse brain proteomes from inhibitor treated mice (oral gavage, sacrificed 4 h after administration); format: in vivo; details: read-out: MAGL % inh. 5 mg/kg
In short: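 Brains were collected 4 h after oral gavage dosing of wild-type C57Bl/6J mice, vehicle polyethylene glycol. Proteomes from these brains were then analyzed for MAGL and other serine hydrolase activity.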

Row | Compound | IC50 (MAGL [1]) | IC50 (FAAH) | inhibition at 1 µM (FAAH) | IC50 (MAGL [2]) | inhibition at 1 µM (MAGL [2]) | inhibition at 5 mg/kg (MAGL [3])
1 | CS(=O)(=O)Nc1ccn(C(=O)N2CCN(Cc3ccc(N4CCCC4)c(C(F)(F)F)c3)CC2)n1 [Example 152, N-(1-(4-(4-(pyrrolidin-1-yl)-3-(trifluoromethyl)benzyl)piperazine-1-carbonyl)-1H-pyrazol-3-yl) methanesulfonamide] | ≤ 100 nM | 1000 to 10000 nM | 0 to 25% | ≤ 100 nM | ≥ 75% | ≥ 75%
2 | CS(=O)(=O)Nc1ccn(C(=O)N2CCN(Cc3ccc(C(F)(F)F)cc3-c3nncs3)CC2)n1 [Example 114, N-(1-(4-(2-(1,3,4-thiadiazol-2-yl)-4-(trifluoromethyl)benzyl)piperazine-1-carbonyl)-1H-pyrazol-3-yl)methanesulfonamide] | ≤ 100 nM |  | 0 to 25% |  | ≥ 75% | 0 to 25%
3 | CS(=O)(=O)Nc1ccn(C(=O)N2CCN(Cc3ccc(Cl)c(OC4CCOCC4)c3)CC2)n1 [Example 219, N-(1-(4-(4-chloro-3-((tetrahydro-2H-pyran-4-yl)oxy)benzyl)piperazine-1-carbonyl)-1H-pyrazol-3-yl) methanesulfonamide] | ≤ 100 nM |  | 0 to 25% |  | ≥ 75% | 25 to 50%
4 | [2H]C([2H])([2H])c1cc(CN2CCCC23CCN(C(=O)n2ccc(NC(C)=O)n2)CC3)ccc1Cl [Example 294, N-(1-(1-(4-chloro-3-(methyl-d3)benzyl)-1,8-diazaspiro[4.5]decane-8-carbonyl)-1H-pyrazol-3-yl)acetamide] | ≤ 100 nM |  | 0 to 25% |  | ≥ 75% | ≥ 75%
5 | CS(=O)(=O)Nc1ccn(C(=O)N2CCN(Cc3ccc(C(F)(F)F)cc3N3CCCC3)CC2)n1 [Example 188, N-(1-(4-(2-(pyrrolidin-1-yl)-4-(trifluoromethyl)benzyl)piperazine-1-carbonyl)-1H-pyrazol-3-yl) methanesulfonamide] | ≤ 100 nM | 1000 to 10000 nM | 0 to 25% | ≤ 100 nM | ≥ 75% | ≥ 75%
6 | CC(=O)N1CCC2(CC1)CN(c1cc(C(F)(F)F)ccc1CN1CCN(C(=O)n3ccc(NS(C)(=O)=O)n3)CC1)C2 [Example 229, N-(1-(4-(2-(7-acetyl-2,7-diazaspiro[3.5]nonan-2-yl)-4-(trifluoromethyl)benzyl)piperazine-1-carbonyl)-1H-pyrazol-3-yl) methanesulfonamide] | ≤ 100 nM |  | 0 to 25% |  | ≥ 75% | 0 to 25%
7 | CC(=O)Nc1ccn(C(=O)N2CCC3(CCCN3Cc3ccc(C)c(Cl)c3)CC2)n1 [Example 96, N-(1-(1-(3-chloro-4-methylbenzyl)-1,8-diazaspiro[4.5]decane-8-carbonyl)-1H-pyrazol-3-yl)acetamide] | ≤ 100 nM | 1000 to 10000 nM | 0 to 25% | ≤ 100 nM | ≥ 75% | ≥ 75%
8 | CC(=O)Nc1ccn(C(=O)N2CCN(Cc3ccc(C(F)(F)F)cc3N3CCC4(CCOCC4)C3)CC2)n1 [Example 45, N-(1-(4-(2-(8-oxa-2-azaspiro[4.5]decan-2-yl)-4-(trifluoromethyl)benzyl)piperazine-1-carbonyl)-1H-pyrazol-3-yl)acetamide] | 100 to 1000 nM | 1000 to 10000 nM | 0 to 25% | ≤ 100 nM | ≥ 75% | 0 to 25%
9 | CS(=O)(=O)Nc1ccn(C(=O)N2CCN(Cc3ccc(Cl)c(N4CCN(C5CC5)CC4)c3)CC2)n1 [Example 202, N-(1-(4-(4-chloro-3-(4-cyclopropylpiperazin-1-yl)benzyl)piperazine-1-carbonyl)-1H-pyrazol-3-yl) methanesulfonamide] | ≤ 100 nM |  | 0 to 25% |  | ≥ 75% | 0 to 25%
10 | CS(=O)(=O)Nc1ccn(C(=O)N2CCN(Cc3ccc(Cl)c(-c4nccs4)c3)CC2)n1 [Example 221, N-(1-(4-(4-chloro-3-(thiazol-2-yl)benzyl)piperazine-1-carbonyl)-1H-pyrazol-3-yl) methanesulfonamide] | ≤ 100 nM |  | 0 to 25% |  | ≥ 75% | 0 to 25%
11 | CS(=O)(=O)Nc1ccn(C(=O)N2CCN(Cc3ccc(Cl)c(N4CC5CN(S(C)(=O)=O)CC5C4)c3)CC2)n1 (stereo not drawn) [Example 217, N-(1-(4-(4-chloro-3-(5-(methylsulfonyl)hexahydropyrrolo[3,4-c]pyrrol-2(1H)-yl)benzyl)piperazine-1-carbonyl)-1H-pyrazol-3-yl) methanesulfonamide] | ≤ 100 nM |  | 0 to 25% |  | ≥ 75% | 0 to 25%
12 | CS(=O)(=O)Nc1ccn(C(=O)N2CCN(Cc3ccc(C(F)(F)F)c(N4C5CCC4COC5)c3)CC2)n1 [Example 218, N-(1-(4-(3-(3-oxa-8-azabicyclo[3.2.1]octan-8-yl)-4-(trifluoromethyl)benzyl)piperazine-1-carbonyl)-1H-pyrazol-3-yl) methanesulfonamide] | ≤ 100 nM |  | 0 to 25% |  | ≥ 75% | 25 to 50%
13 | CC(=O)N1CCC2(CC1)CCN(c1cc(C(F)(F)F)ccc1CN1CCN(C(=O)n3ccc(NS(C)(=O)=O)n3)CC1)C2 [Example 232, N-(1-(4-(2-(8-acetyl-2,8-diazaspiro[4.5]decan-2-yl)-4-(trifluoromethyl)benzyl)piperazine-1-carbonyl)-1H-pyrazol-3-yl) methanesulfonamide] | ≤ 100 nM |  | 0 to 25% |  | ≥ 75% | 0 to 25%
14 | CS(=O)(=O)Nc1ccn(C(=O)N2CCN(Cc3cc(Cl)ccc3N3CCOCC3)CC2)n1 [Example 123, N-(1-(4-(5-chloro-2-morpholinobenzyl)piperazine-1-carbonyl)-1H-pyrazol-3-yl) methanesulfonamide] | ≤ 100 nM | 1000 to 10000 nM | 0 to 25% | 100 to 1000 nM | ≥ 75% | 25 to 50%
15 | CS(=O)(=O)Nc1ccn(C(=O)N2CCC3(CCCN3Cc3ccc(C(F)(F)F)cc3N3CCCC3)CC2)n1 [Example 125, N-(1-(1-(2-(pyrrolidin-1-yl)-4-(trifluoromethyl)benzyl)-1,8-diazaspiro[4.5]decane-8-carbonyl)-1H-pyrazol-3-yl) methanesulfonamide] | ≤ 100 nM | 1000 to 10000 nM | 0 to 25% | ≤ 100 nM | ≥ 75% | 0 to 25%
